Patent publication US10058092B2, “Apparatus and method for controlled release of botanical fumigant pesticides” (priority 2012, dated 2018)
Several values for one entry are separate records, joined by “and”; a condition that tells them apart may be missing. Equal values may be shown once.

How the values were obtained:
[1] = Headspace volatilization of secondary metabolites by GCMS; assay type: physicochemical; details: share of total peak area
Procedure: In this study, a liquid fumigant pesticide formulation was prepared as follows: • (1) Base formula: rosemary oil (5 ml) • (2) Enhancement formula: rosemary oil high quality (0.5 ml); clove oil (0.05 ml); peppermint oil (0.075 ml) • (3) Carrier solvent: isopropyl alcohol (6 ml); isopropyl myristate (0.06 ml). Blending: • 3. The required amounts of base formula ingredients were drawn from individual stocks of chemicals via a laboratory pipette and were transferred into a 40 ml GC glass vial (2.5 cm diameter by 10 cm length) with a silicon septa. The tall vial was used to minimize surface area of liquid that is exposed to the air during preparation. The chemicals were added quickly (less than 10 second to transfer each chemical) in order to minimize exposure to air. Following the same instruction, the enhancement formula was prepared and added to the same vial. • 4. The carrier solvent was then poured over the base formula and enhancement formula inside the vial. The vial was closed immediately after the solvent was added. The base formula, enhancement formula and carrier solvent were mixed using a lab shaker for 15 seconds.
A sub-sample of the fumigant pesticide composition (0.5 ml) was placed inside a 1 ml GC vial. Three commercial samples of rosemary oil was also placed inside three separate 1 mL GC vials. Headspace volatilization of secondary metabolites from these four samples were compared using a gas chromatograph mass spectrometer (GCMS). The GCMS was programmed to only collect samples from the headspace above the liquid mixture of the chemicals in the vials. […] The GCMS was a Varian 3900 system with a Saturn 2100T ion trap mass-selective detector (Varian Inc., Walnut Creek, Calif.). The inventors used a WCOT fused silica 30 m Å˜0.25 mm i.d. column with a CP-Sil 8 CB low bleed MS coating (Varian Inc.), a 1 μL injection volume and pure helium as the carrier at 1.0 ml min-1. The temperature program used was 80° C. for 0.5 min, an increase of 8.0 $ Cmin-1 for 8.0 min, followed by an increase of 50° C. min-1 for 3.2 min. Cinnamic alcohol (Sigma, St Louis, Mo., USA) was used as an internal standard.

[2] = Volatilization monitoring by ultra-fast gas chromatograph inside empty moving box; assay type: physicochemical; details: from fumigant pesticide composition prototype, empty medium size box, 60-150 min and 23 h after closing
Procedure: The volatilization of the prototype of the fumigant pesticide composition was monitored inside empty moving boxes. […] Ten mL of the fumigant pesticide composition prototype was placed inside a 40 mL GC vial.
Volatile monitoring was performed at two steps. Step one started 60 minutes after the box was closed and volatile samples were collected every 5-minutes for 90 minutes. The second step started 23 hours after the box was closed and samples were collected every 5-minutes for 50 minutes.

[3] = Commercial rosemary oil sample one
[4] = Commercial rosemary oil sample three
[5] = Commercial rosemary oil sample two
[6] = Pesticide fumigant formula of the present invention (0.5 ml in 1 ml GC vial)

Row | Structure (SMILES) | % of secondary metabolite in headspace [1, 3] [%] | % of secondary metabolite in headspace [1, 4] | % of secondary metabolite in headspace [1, 5] [%] | % of secondary metabolite in headspace [1, 6] [%] | pattern of volatilization [2]
1 | CC1=CCC2CC1C2(C)C (centres unmarked) [a-pinene] | 6.53 | 14.73% | 18.15 | 14.58 | Complete inhibition pattern
2 | Cc1ccc(C(C)C)cc1 [p-Cymene] | 1.89 | 2.01% | 2.56 | – | Fluctuation pattern with increasing levels at the tail end
3 | C=C(C)[C@H]1CC=C(C)CC1 [D-Limonene] | – | – | 4.67 | – | Fluctuation pattern with increasing levels at the tail end
4 | CC(=O)OC(C)C [Isopropyl acetate] | – | – | 3.25 | – | –
5 | CC12CCC(CC1=O)C2(C)C (centres unmarked) [Camphor] | 11.89 | 18.60% | 25.50 | 23.30 | Fluctuation pattern with increasing levels at the tail end
6 | CC1=CC[C@@H](C(C)(C)O)CC1 [a-Terpineol] | – | 2.48% | – | – | –
7 | CC12CCC(CC1)C(C)(C)O2 [1,8-Cineole] | 57.05 | 36.95% | 21.53 | 46.78 | Unstable pattern with greater fluctuation at the end of trial
8 | C=CCc1ccc(O)c(OC)c1 [Eugenol] | – | – | – | – | Unstable pattern with greater fluctuation at the end of trial
9 | C=CC(C)(O)CCC=C(C)C (centres unmarked) [linalool] | – | – | – | – | Steady compounds
10 | C=C1C2CCC(C2)C1(C)C (centres unmarked) [Camphene] | 4.26 | 10.06% and 4.72% | 13.04 | 9.98 | Fluctuation pattern with increasing levels at the tail end
11 | CC1(C)[C@@H]2CC[C@@]1(C)[C@H](O)C2 [Isoborneol] | 1.74 | – | 2.28 | – | –
12 | CC(C)=CCC/C(C)=C/CO [geraniol] | – | – | – | – | Steady compounds
13 | CC1=CCC2C(C1)C2(C)C (centres unmarked) [3-Carene] | 1.88 | – | – | – | –
14 | C=C1CCC2CC1C2(C)C (centres unmarked) [b-pinene] | 8.00 | 6.22% | 5.43 | 5.35 | Complete inhibition pattern
15 | CC(=O)OC1CC2CCC1(C)C2(C)C (centres unmarked) [Bornyl Acetate] | 2.70 | 2.54% | – | – | –
16 | CC1(C)C2CCC1(C)C(O)C2 (centres unmarked) [Borneol] | 4.06 | 1.68% | 3.60 | – | –
